{
  "source": "patent US20260207606A1",
  "about": "“DOSING SCHEDULE OF A SOLID DISPERSION OF A HER2 INHIBITOR” (Boehringer Ingelheim International GmbH, priority 2022, published 2026)",
  "key": {"PC-9 YVMA xenograft": {"test_system": "PC-9 YVMA xenograft", "test": "Preclinical PK/TGI model for human dose prediction", "design": "species or system mice", "conditions": "PK/TGI model with predicted human PK parameters", "description": "This preclinical mathematical model was built with input data from internal in vitro and in vivo data from efficacy experiments in PC-9 YVMA xenograft. Plasma exposure and tumor growth inhibition data from mice were used to train the model. The predicted human PK parameters were used to predict the human plasma profile in the preclinical PK/TGI model. In this setting the PK/TGI model was used to identify the required dose in human necessary to achieve a TGI >100%. This was predicted at 40 mg BID."}, "NSCLC": {"test_system": "NSCLC", "test": "Phase Ia dose escalation trial: tumour response according to RECIST v1.1 in NSCLC patients", "type": "in vivo, human", "conditions": "regardless of confirmation, data lock 16 Mar. 2023", "from_the_text": "Tumour assessments should include computed tomography (CT) scans of the chest, abdomen/pelvis (or PET/CT) and a brain MRI at screening. If clinically indicated, imaging of any other known or suspected sites of disease (e.g. bone) using an appropriate method (CT scan, MRI, PET/CT, or bone scan) should be performed. The same radiographic procedure must be used throughout the trial. Assessments will be performed by the investigator at screening (≤28 days prior to initiation of treatment), every 2 cycles (6 weeks ±5 days), at the end-of-treatment (EOT) visit (if not performed within the previous 3 weeks), and at the discretion of the investigator, and copies may be collected by the sponsor or designee. Wherever possible the assessment schedule should not be changed, but if there is an interruption or delay to treatment, alteration of the tumour assessment schedule to align with clinical assessments is allowed. Additional unscheduled tumour assessments may be performed at the discretion of the investigator. If the patient stops trial medication for a reason other than progression, tumour assessment according to RECIST v1.1 continues until progression (or until one of the following occurs; death, lost to follow-up, end of the trial).\nTumour response is evaluated according to RECIST Version 1.1 (Eisenhauer E A, Therasse P, Bogaerts J, Schwartz L H, Sargent D, Ford R, et al. New response evaluation criteria in solid tumours: revised RECIST guideline (version 1.1). Eur J Cancer. 2009; 45:228-247). RECIST 1.1 is used for a) whole-body assessment (classical RECIST 1.1) and b) the tumour assessment of non-CNS areas. The assessment according to classical RECIST 1.1 by the investigator and/or the local radiologist is the basis for continuation or discontinuation of the trial in an individual patient (in addition to safety). No whole-body RECIST assessment is performed in the dose escalation part."}},
  "data": [
    {"molecule": "C=CC(=O)NC1CCN(c2ncc3ncnc(Nc4ccc(Oc5ccc6c(c5)ncn6C)c(C)c4)c3n2)CC1", "note": "[compound (1), N-{1-[8-({3-methyl-4-[(1-methyl-1H-1,3-benzodiazol-5-yl)oxy]phenyl}amino)-[1,3]diazino[5,4-d]pyrimidin-2-yl]piperidin-4-yl}prop-2-enamide]", "values": [
      {"measurement": "predicted dose in human necessary to achieve a TGI >100%", "setting": "PC-9 YVMA xenograft", "result": 40, "unit": "mg BID"},
      {"measurement": "Best overall response (RECIST 1.1): Complete response, %", "setting": "NSCLC; 15 mg BID, 1 NSCLC patients", "result": 0.0, "unit": "%"},
      {"measurement": "Best overall response (RECIST 1.1): Non-CR/Non-PD, %", "setting": "NSCLC; 15 mg BID, 1 NSCLC patients", "result": 0.0, "unit": "%"},
      {"measurement": "Best overall response (RECIST 1.1): Not evaluable, %", "setting": "NSCLC; 15 mg BID, 1 NSCLC patients", "result": 0.0, "unit": "%"},
      {"measurement": "Best overall response (RECIST 1.1): Partial response, %", "setting": "NSCLC; 15 mg BID, 1 NSCLC patients", "result": 0.0, "unit": "%"},
      {"measurement": "Best overall response (RECIST 1.1): Progressive disease, %", "setting": "NSCLC; 15 mg BID, 1 NSCLC patients", "result": 0.0, "unit": "%"},
      {"measurement": "Best overall response (RECIST 1.1): Stable disease, %", "setting": "NSCLC; 15 mg BID, 1 NSCLC patients", "result": 100.0, "unit": "%"},
      {"measurement": "Best overall response (RECIST 1.1): Complete response, %", "setting": "NSCLC; 30 mg BID, 2 NSCLC patients", "result": 0.0, "unit": "%"},
      {"measurement": "Best overall response (RECIST 1.1): Non-CR/Non-PD, %", "setting": "NSCLC; 30 mg BID, 2 NSCLC patients", "result": 0.0, "unit": "%"},
      {"measurement": "Best overall response (RECIST 1.1): Not evaluable, %", "setting": "NSCLC; 30 mg BID, 2 NSCLC patients", "result": 0.0, "unit": "%"},
      {"measurement": "Best overall response (RECIST 1.1): Partial response, %", "setting": "NSCLC; 30 mg BID, 2 NSCLC patients", "result": 50.0, "unit": "%"},
      {"measurement": "Best overall response (RECIST 1.1): Progressive disease, %", "setting": "NSCLC; 30 mg BID, 2 NSCLC patients", "result": 0.0, "unit": "%"},
      {"measurement": "Best overall response (RECIST 1.1): Stable disease, %", "setting": "NSCLC; 30 mg BID, 2 NSCLC patients", "result": 50.0, "unit": "%"},
      {"measurement": "Best overall response (RECIST 1.1): Complete response, %", "setting": "NSCLC; 60 mg BID, 3 NSCLC patients", "result": 0.0, "unit": "%"},
      {"measurement": "Best overall response (RECIST 1.1): Non-CR/Non-PD, %", "setting": "NSCLC; 60 mg BID, 3 NSCLC patients", "result": 0.0, "unit": "%"},
      {"measurement": "Best overall response (RECIST 1.1): Not evaluable, %", "setting": "NSCLC; 60 mg BID, 3 NSCLC patients", "result": 0.0, "unit": "%"},
      {"measurement": "Best overall response (RECIST 1.1): Partial response, %", "setting": "NSCLC; 60 mg BID, 3 NSCLC patients", "result": 66.7, "unit": "%"},
      {"measurement": "Best overall response (RECIST 1.1): Progressive disease, %", "setting": "NSCLC; 60 mg BID, 3 NSCLC patients", "result": 0.0, "unit": "%"},
      {"measurement": "Best overall response (RECIST 1.1): Stable disease, %", "setting": "NSCLC; 60 mg BID, 3 NSCLC patients", "result": 33.3, "unit": "%"},
      {"measurement": "Best overall response (RECIST 1.1): Complete response, %", "setting": "NSCLC; 60 mg QD, 2 NSCLC patients", "result": 0.0, "unit": "%"},
      {"measurement": "Best overall response (RECIST 1.1): Non-CR/Non-PD, %", "setting": "NSCLC; 60 mg QD, 2 NSCLC patients", "result": 0.0, "unit": "%"},
      {"measurement": "Best overall response (RECIST 1.1): Not evaluable, %", "setting": "NSCLC; 60 mg QD, 2 NSCLC patients", "result": 0.0, "unit": "%"},
      {"measurement": "Best overall response (RECIST 1.1): Partial response, %", "setting": "NSCLC; 60 mg QD, 2 NSCLC patients", "result": 50.0, "unit": "%"},
      {"measurement": "Best overall response (RECIST 1.1): Progressive disease, %", "setting": "NSCLC; 60 mg QD, 2 NSCLC patients", "result": 0.0, "unit": "%"},
      {"measurement": "Best overall response (RECIST 1.1): Stable disease, %", "setting": "NSCLC; 60 mg QD, 2 NSCLC patients", "result": 50.0, "unit": "%"},
      {"measurement": "Best overall response (RECIST 1.1): Complete response, %", "setting": "NSCLC; 100 mg BID, 3 NSCLC patients", "result": 0.0, "unit": "%"},
      {"measurement": "Best overall response (RECIST 1.1): Non-CR/Non-PD, %", "setting": "NSCLC; 100 mg BID, 3 NSCLC patients", "result": 0.0, "unit": "%"},
      {"measurement": "Best overall response (RECIST 1.1): Not evaluable, %", "setting": "NSCLC; 100 mg BID, 3 NSCLC patients", "result": 0.0, "unit": "%"},
      {"measurement": "Best overall response (RECIST 1.1): Partial response, %", "setting": "NSCLC; 100 mg BID, 3 NSCLC patients", "result": 33.0, "unit": "%"},
      {"measurement": "Best overall response (RECIST 1.1): Progressive disease, %", "setting": "NSCLC; 100 mg BID, 3 NSCLC patients", "result": 0.0, "unit": "%"},
      {"measurement": "Best overall response (RECIST 1.1): Stable disease, %", "setting": "NSCLC; 100 mg BID, 3 NSCLC patients", "result": 66.7, "unit": "%"},
      {"measurement": "Best overall response (RECIST 1.1): Complete response, %", "setting": "NSCLC; 120 mg QD, 4 NSCLC patients", "result": 0.0, "unit": "%"},
      {"measurement": "Best overall response (RECIST 1.1): Non-CR/Non-PD, %", "setting": "NSCLC; 120 mg QD, 4 NSCLC patients", "result": 0.0, "unit": "%"},
      {"measurement": "Best overall response (RECIST 1.1): Not evaluable, %", "setting": "NSCLC; 120 mg QD, 4 NSCLC patients", "result": 0.0, "unit": "%"},
      {"measurement": "Best overall response (RECIST 1.1): Partial response, %", "setting": "NSCLC; 120 mg QD, 4 NSCLC patients", "result": 50.0, "unit": "%"},
      {"measurement": "Best overall response (RECIST 1.1): Progressive disease, %", "setting": "NSCLC; 120 mg QD, 4 NSCLC patients", "result": 25.0, "unit": "%"},
      {"measurement": "Best overall response (RECIST 1.1): Stable disease, %", "setting": "NSCLC; 120 mg QD, 4 NSCLC patients", "result": 25.0, "unit": "%"},
      {"measurement": "Best overall response (RECIST 1.1): Complete response, %", "setting": "NSCLC; 150 mg BID, 2 NSCLC patients", "result": 0.0, "unit": "%"},
      {"measurement": "Best overall response (RECIST 1.1): Non-CR/Non-PD, %", "setting": "NSCLC; 150 mg BID, 2 NSCLC patients", "result": 0.0, "unit": "%"},
      {"measurement": "Best overall response (RECIST 1.1): Not evaluable, %", "setting": "NSCLC; 150 mg BID, 2 NSCLC patients", "result": 0.0, "unit": "%"},
      {"measurement": "Best overall response (RECIST 1.1): Partial response, %", "setting": "NSCLC; 150 mg BID, 2 NSCLC patients", "result": 50.0, "unit": "%"},
      {"measurement": "Best overall response (RECIST 1.1): Progressive disease, %", "setting": "NSCLC; 150 mg BID, 2 NSCLC patients", "result": 0.0, "unit": "%"},
      {"measurement": "Best overall response (RECIST 1.1): Stable disease, %", "setting": "NSCLC; 150 mg BID, 2 NSCLC patients", "result": 50.0, "unit": "%"},
      {"measurement": "Best overall response (RECIST 1.1): Complete response, %", "setting": "NSCLC; 180 mg QD, 5 NSCLC patients", "result": 0.0, "unit": "%"},
      {"measurement": "Best overall response (RECIST 1.1): Non-CR/Non-PD, %", "setting": "NSCLC; 180 mg QD, 5 NSCLC patients", "result": 0.0, "unit": "%"},
      {"measurement": "Best overall response (RECIST 1.1): Not evaluable, %", "setting": "NSCLC; 180 mg QD, 5 NSCLC patients", "result": 20.0, "unit": "%"}
    ]}
  ]
}
